Several values for one entry are separate records, joined by “and”; a condition that tells them apart may be missing. Equal entries are not always repeated.
target: SARS-CoV-2 Main Protease (SARS-CoV-2) (UniProt P0DTD1)

SMILES	IC50
Cc1cc(N2CCC(C)N(Cc3ccccc3)CC2)n2ncnc2n1 (configuration not stated)	> 99.5 µM
CNC(=O)CN1Cc2ccc(Cl)cc2C2(CCN(c3cncc4ccc(F)cc34)C2=O)C1 (configuration not stated)	0.267 µM
CC1C(=O)NCCN1C(=O)CCCc1c[nH]c2ccccc12 (configuration not stated)	> 99.5 µM
Cc1cccc2ncnc(NC(C)c3ccc4[nH]c(=O)[nH]c4c3)c12 (configuration not stated)	> 99.5 µM
O=C(Cc1cc(Cl)cc(N[C@@H](CO)Cc2ccccc2)c1)Nc1cncc2ccccc12 (stereo in doubt)	2.5 µM
CN(CC(=O)Nc1ccccc1Br)C(=O)CCl	5.9 µM
CC(C)(C)c1ccc(N(C(=O)c2cocn2)C(C(=O)NCCc2cccc(F)c2)c2ccnnc2)cc1 (configuration not stated)	2.05 µM
COc1cc(CN2CCN(C(=O)CCl)CC2)c2ccccc2c1	2.75 µM
CC1(C(=O)Nc2cncc3cc(S(C)(=O)=O)ccc23)CN(CC2CC2)S(=O)(=O)c2ccc(Cl)cc21 (configuration not stated)	0.615 µM
O=C(Cc1cc(Cl)cc(Nc2ccc(I)c(F)c2)c1)Nc1cncc2ccccc12	2.04 µM
Cc1ccc(Nc2cc(Cl)cc(CC(=O)Nc3cncc4ccccc34)c2)cc1I	2.07 µM
C=CC(=O)N1CCN(S(=O)(=O)c2cccs2)CC1	> 99.5 µM
Cc1ccncc1NC(=O)Cc1cc(Cl)cc(S(N)(=O)=O)c1	14.6 µM
CCOc1ccc(N(C(=O)c2cocn2)C(C(=O)NCCc2cccc(F)c2)c2cccnc2)cn1 (configuration not stated)	> 99.5 µM
COC1(CS(=O)(=O)N2CC(C(=O)Nc3cncc4cc(S(C)(=O)=O)ccc34)c3cc(Cl)ccc3C2=O)CC1 (configuration not stated)	0.773 µM
CC(C)c1nc(CN(C)c2cc(Cl)cc(CC(=O)Nc3cncc4ccccc34)c2)cs1	2.63 µM
O=C(c1cc(=O)cc[nH]1)N1CCN(c2cccc(Cl)c2)CC1	> 99.5 µM
Cn1cc(NC(=O)Cc2cccc(Cl)c2)c2ccccc2c1=O	> 99.5 µM
CNC(=O)CN1CC(C)(C(=O)Nc2cncc3ccccc23)c2cc(Cl)ccc2C1=O (configuration not stated)	0.128 µM and 0.214 µM
O=C(c1ccc2nnnn2c1)N1CCn2c(cc3ccccc32)C1	> 99.5 µM
Cc1ccncc1C(C(=O)NCCc1cccc(F)c1)N(C(=O)c1ccco1)c1ccc(C(C)(C)C)cc1 (configuration not stated)	0.112 µM
O=C1CC(Oc2cc(Cl)cc(CC(=O)Nn3cnc4ccccc4c3=O)c2)N1 (configuration not stated)	> 99.5 µM
Cn1nc2c(c1C(=O)N(c1ccc(C(C)(C)C)cc1)C(C(=O)NCCc1cccc(F)c1)c1cccnc1)CS(=O)(=O)CC2 (configuration not stated)	> 99.5 µM
O=C(Cc1cc(Cl)cc(NCc2cccc(F)c2Cl)c1)Nc1cncc2ccccc12	2.22 µM
O=C(NCC1=[SH]C=CC1)[C@@H](c1ccccc1)N1Cc2ccccc2C1=O (stereo in doubt)	> 99.5 µM

SMILES	IC50
COc1ccc(Cl)cc1N1C(=O)CN(Cc2cc(=O)[nH]c3ccccc23)C1=O	> 99.5 µM
O=C(Cc1cc(Cl)cc(Nc2ccncc2I)c1)Nc1cncc2ccccc12	1.68 µM
O=C(Nc1cncc2ccccc12)C(CO)c1ccc(Cl)c(Cl)c1 (configuration not stated)	19.3 µM
CN(c1cc(Cl)cc(CC(=O)Nc2cncc3ccccc23)c1)[C@@H]1CCN(Cc2ccccc2)C1 (stereo in doubt)	2.04 µM
O=C(Cc1cc(Cl)cc(Nc2ccncc2Br)c1)Nc1cncc2ccccc12	2.18 µM
CC(C)(C)c1ccc(N(C(=O)c2ccno2)C(C(=O)NCCc2cccc(F)c2)c2cccnc2)cc1 (configuration not stated)	1.11 µM
CCCNC(=O)CN1CC(C(=O)Nc2cncc3ccccc23)c2cc(Cl)ccc2C1=O (configuration not stated)	0.0864 µM and 0.174 µM
Cn1c(CNCC2(C(=O)Nc3cncc4ccccc34)CCOc3ccc(Cl)cc32)nc2c1c(=O)[nH]c(=O)n2C (configuration not stated)	> 99.5 µM
O=C(c1ccnn1C1CC1)N1Cc2ccc(Cl)cc2C2(CCN(c3cncc4ccccc34)C2=O)C1 (configuration not stated)	0.163 µM
O=C(Nc1cncc2sc(Cl)cc12)C1CCOc2ccc(Cl)cc21 (configuration not stated)	1.03 µM
CNC(=O)CN1C[C@H](C(=O)Nc2cncc3cc(Cl)ccc23)c2cc(Cl)ccc2C1=O (stereo in doubt)	0.149 µM
O=C(NCc1ccccn1)[C@@H]1CN(C(=O)CCl)CCN1S(=O)(=O)c1ccsc1 (stereo in doubt)	0.542 µM
O=C(Cc1cc(Cl)cc(Nc2ccc(I)cn2)c1)Nc1cncc2ccccc12	2.21 µM
CNS(=O)(=O)c1cc2c(cc1OCc1ccccc1)OCO2	> 99.5 µM
O=C(Cc1cccc(Cl)c1)Nc1ncn2ccccc12	> 99.5 µM
CCOc1ccc(N(C(=O)c2cnc[nH]2)C(C(=O)NCCc2cccc(F)c2)c2cccnc2)cn1 (configuration not stated)	> 99 µM
O=C(Cc1cc(Cl)cc(N2CCC(C(F)(F)F)CC2)c1)Nc1cncc2ccccc12	1.43 µM
O=C(OCC(=O)N1CCC(Cc2ccccc2)CC1)c1cc(=O)[nH]c(=O)[nH]1	> 99.5 µM
O=C(Cc1cc(Cl)cc(Nc2ccc(OCc3ccccn3)c(Cl)c2)c1)Nc1cncc2ccccc12	2.09 µM
Cn1ncc2cc(N(C(=O)c3cnc[nH]3)C(C(=O)NCCc3cccc(F)c3)c3cccnc3)ccc21 (configuration not stated)	> 99 µM
CC(C)(C)c1ccc(N(C(=O)c2ccco2)C(C(=O)NCCc2cccc(F)c2)c2cncc3ccccc23)cc1 (configuration not stated)	0.403 µM
COc1ccc2c(NC(=O)Cc3cccc(Cl)c3)cncc2c1	8.63 µM
Cc1ccc(S(=O)(=O)N2CCN(C(=O)c3cc(=O)[nH]c4cc(F)ccc34)CC2)c(C)c1	> 99.5 µM
Cc1c(Nc2cc(Cl)cc(CC(=O)Nc3cncc4ccccc34)c2)c(=O)n(-c2ccccc2)n1C	3.41 µM
Cc1csc2ncc(C(=O)N3C4CCC3c3ccccc34)c(=O)n12	> 99.5 µM

SMILES	IC50
Cc1nc2ccc(NS(=O)(=O)c3cccc4nonc34)cc2o1	> 99.5 µM
O=C(Cc1cc(Cl)cc(N2CCC(Cc3ccccc3)CC2)c1)Nc1cncc2ccccc12	3.35 µM
Cn1ncc(S(=O)(=O)N2Cc3ccc(Cl)cc3C(C(=O)Nc3cncc4ccccc34)C2)n1 (configuration not stated)	0.268 µM
COC(=O)/C=C/C(=O)N(C(=O)[C@H]1CCOc2ccc(Cl)cc21)c1cncc2ccccc12 (stereo in doubt)	4.36 µM
O=C(NCCc1cccc(F)c1)C(c1cccnc1)N(C(=O)c1cocn1)c1ccc(-c2nnc3n2CCC3)cc1 (configuration not stated)	> 99.5 µM
CN(C)C(=O)CNC(=O)C(c1cccnc1)N(C(=O)c1ccco1)c1ccc(C(C)(C)C)cc1 (configuration not stated)	10.9 µM
O=C(Cn1nnc2ccccc21)N(Cc1ccsc1)c1ccc(N2CCCCC2)cc1	6.56 µM
CC(NC(=O)CCl)c1cc(Cl)cc(-c2ccc(S(N)(=O)=O)cc2)c1 (configuration not stated)	0.466 µM
O=C(Nc1ccc(N(Cc2ccsc2)C(=O)Cn2nnc3ccccc32)cc1)C1CC1	3.99 µM
COc1ccc(N(C(C)=O)c2cc(Cl)cc(CC(=O)Nc3cncc4ccccc34)c2)cc1N	2.71 µM
CC(C)(C)c1ccc(N(C(=O)c2ccon2)C(C(=O)NCCc2cccc(F)c2)c2cccnc2)cc1 (configuration not stated)	4.26 µM
O=C(Cc1cc(Cl)cc(N2CCN(c3ccc(Br)cn3)CC2)c1)Nc1cncc2ccccc12	3.17 µM
CCS(=O)(=O)N1Cc2ccc(Cl)cc2C(C(=O)Nc2cncc3ccccc23)C1 (configuration not stated)	0.242 µM
O=C(Cc1cc(Cl)cc(Nc2n[nH]c3ccc(Br)cc23)c1)Nc1cncc2ccccc12	1.83 µM
CC(C)(C)c1ccc(N(C(=O)c2cnc(C(C)(C)CF)o2)C(C(=O)NCCc2cccc(F)c2)c2cccnc2)cc1 (configuration not stated)	> 99.5 µM
O=C(Nc1cccnc1)[C@@H](c1ccccc1)N1Cc2ccccc2C1=O (stereo in doubt)	> 99.5 µM
O=C(Nc1cncc2ccccc12)C1CCOc2c(OCc3ccccc3)cc(Cl)cc21 (configuration not stated)	36.5 µM
O=C(Cc1cc(Cl)cc(N2CCc3c([nH]c4ccccc34)C2)c1)Nc1cncc2ccccc12	2.02 µM
COC(CNC(=O)C(c1cccnc1)N(C(=O)c1cocn1)c1ccc(C(C)(C)C)cc1)OC (configuration not stated)	7.91 µM
CC(C)(C)c1ccc(N(C(=O)c2ccco2)C(C(=O)NCCc2cccc(F)c2)c2[nH]nc3ccccc23)cc1 (configuration not stated)	> 99.5 µM
COc1ccc(Cl)cc1OCCNC(=O)c1cc(=O)[nH]c2ccccc12	> 99.5 µM
COc1ccc2c(NC(=O)Cc3cccc(Cl)c3)[nH]nc2c1	> 99.5 µM
O=C1N(c2cncc3ccccc23)CCC12CN(S(=O)(=O)CC1CS(=O)(=O)C1)Cc1ccc(Cl)cc12 (configuration not stated)	0.353 µM
COC1(CS(=O)(=O)N2Cc3ccc(Cl)cc3C(C(=O)Nc3cncc4ccc(C(C)(C)O)cc34)C2)CC1 (configuration not stated)	1.77 µM
Cc1nocc1C(=O)N1Cc2ccc(Cl)cc2C(C(=O)Nc2cncc3ccccc23)C1 (configuration not stated)	0.168 µM

SMILES	IC50
O=C(Nc1cncc2ccccc12)C12CCC(O1)c1cc(Cl)ccc12 (configuration not stated)	2.39 µM
O=C(Cc1cc(Cl)cc(Nc2ccc(C(F)(F)F)cn2)c1)Nc1cncc2ccccc12	3.96 µM
CCOc1ccc(CNc2cc(Cl)cc(CC(=O)Nc3cncc4ccccc34)c2)cc1	3.41 µM
CC1(NC(=O)Cc2cccc(Cl)c2)CCNC1=O (configuration not stated)	> 99.5 µM
O=C(Cc1cccc(Cl)c1)Nc1n[nH]c2ccnc(Br)c12	> 99.5 µM
O=C(Nc1ccc2c(=O)cc[nH]c2c1)c1ccc2ccncc2c1	> 99.5 µM
O=C(CCl)N1CCN(S(=O)(=O)c2cccs2)CC1	2.07 µM and 2.26 µM
O=C1CC(N2CC(C(=O)Nc3cncc4ccccc34)c3cc(Cl)ccc3C2=O)CN1 (configuration not stated)	0.681 µM
CCc1cc(F)ccc1-c1cc(Cl)cc(CC(=O)Nc2cnccc2C)c1	31.6 µM
CC(C)(C#N)CS(=O)(=O)N1Cc2ccc(Cl)cc2[C@H](C(=O)Nc2cncc3ccccc23)C1 (stereo in doubt)	0.055 µM and 0.0969 µM and 0.141 µM
CC1CN(C(=O)CC2(C(=O)Nc3cncc4ccccc34)CCOc3ccc(Cl)cc32)CCN1CCO (configuration not stated)	> 99.5 µM
NCc1cn(CC(=O)N(Cc2cscn2)c2ccc(-c3ccccc3)nc2)nn1	> 99.5 µM
Cn1cc(CN2Cc3ccc(Cl)cc3C(C(=O)Nc3cncc4ccc(F)cc34)C2)nn1 (configuration not stated)	0.914 µM
CS(=O)(=O)c1ccc2c(NC(=O)C3CCOc4ccc(Cl)cc43)cncc2c1 (configuration not stated)	0.427 µM
CC(=O)N1CCN(CC(=O)Nc2cnccc2-c2ccccc2)CC1	> 99.5 µM
O=C(Cc1cc(Cl)cc(Nc2nc3cc(Cl)ccc3s2)c1)Nc1cncc2ccccc12	2.04 µM
O=C(NCCc1ccccc1)[C@H]1CN(C(=O)CCl)CCN1S(=O)(=O)c1ccsc1 (stereo in doubt)	2.43 µM
O=C1CCN(S(=O)(=O)c2cccc(F)c2)CC1	> 99.5 µM
Cc1nnc(C2Cc3ccccc3CN2C(=O)CCl)o1 (configuration not stated)	53.5 µM
Cc1ccncc1NC(=O)Cc1cc(Cl)cc(-c2cnn(C)c2C(F)F)c1	19.3 µM
O=C(Cc1cc(Cl)cc(Nc2nc3c(Cl)cccc3s2)c1)Nc1cncc2ccccc12	2.11 µM
CN1CC(C)(C(=O)Nc2cncc3cc(S(C)(=O)=O)ccc23)c2cc(Cl)ccc2S1(=O)=O (configuration not stated)	0.523 µM
